Data published in patent US20240174622A1, “COMPOUND AND RADIOACTIVE LABELING COMPOUND” (NIHON MEDI-PHYSICS CO., LTD., priority 2021, published 2024).

Legend:
[1] = system: plasma albumin (human plasma); experiment: Evaluation of binding to albumin (human plasma); conditions: for radioactivity in the eluate (in words): left to stand in human plasma
Experimental: A PBS solution (37 kBq, 50 μL) of [^111In]In-PSMA-DA1 or [^111In]In-PSMA-DB was added to 200 μL of PBS, mouse plasma, human plasma, or a human serum albumin (HSA) solution (45 mg/mL) in PBS, respectively, and the mixtures were allowed to stand at 37° C. for 10 minutes. Thereafter, the reaction liquids were added to a spin column ([…]; manufactured by Cytiva), and centrifuged at 1500×g at 4° C. for 2 minutes. After separation, the radioactivity for each of the column and the eluate was measured with a gamma counter.
When a compound to be evaluated binds to albumin to form a composite, the compound passes through the column because of the increased molecular size.
As in Example 1-1 described above, PBS, mouse plasma, human plasma, and human albumin were used to evaluate binding to albumin. Evaluation was carried out by the same experimental procedure and statistical method as in Example 1-1, except that a PBS solution (37 kBq, 50 μL) of [^111In]In-PtDA was used.
Thereafter, the reaction liquid was added to a spin column (Sephadex G-50; manufactured by Cytiva), and centrifuged at 1500×g at 4° C. for 2 minutes. After separation, the radioactivity of the column and the eluate was measured with a gamma counter.

LNCaP tumor = experiment: SPECT/CT using LNCaP tumor-transplanted mouse; assay type: in vivo
Experimental: (§1) LNCaP tumor-implanted mice prepared by the method described above were administered saline solutions (1.9 to 3.0 MBq, 150 μL) of [^111In]In-PSMA-DA1 or [^111In]In-PSMA-DB from the tail vein. SPECT/CT was performed 24 and 48 hours after administration with FX3300 pre-clinical imaging system, which is manufactured by Gamma Medica-Ideas. Imaging was performed using a pinhole collimator with a diameter of 1.0 mm at a rotation radius of 35 mm, a projection time of 70 seconds, and the number of projections of 32 times under isoflurane anesthesia. After SPECT, CT (Tube voltage: 60 kV, Tube current: 350 μA) was performed. Image reconstruction was performed on the projection data of SPECT through three-dimensional ordered subset expectation maximization method (8 subsets, 5 iterations).
In the figure, the part indicated by the arrow is the location of the tumor, and the part indicated by the circle is the location of the kidney. The higher the SUV, the higher the radioactivity accumulation. […]
as §1, with “SPECT/CT” for “LNCaP tumor-implanted mice prepared by the method described above were administered saline solutions (1.9 to 3.0 MBq, 150 μL) of [^111In]In-PSMA-DA1 or [^111In]In-PSMA-DB from the tail vein. SPECT/CT”, “24, 48,” for “24”, “96” for “48”

[2] = 24 (and 48) hours after administration

Compound | radioactivity in the eluate (in words) [1] | radioactivity accumulation at the LNCaP tumor in SPECT/CT (LNCaP tumor; [2]) | radioactivity accumulation at the kidney in SPECT/CT (LNCaP tumor; [2]) | radioactivity accumulation at the kidney in SPECT/CT (LNCaP tumor; 96 hours after administration) | radioactivity in the eluate ([1]; human plasma)
O=C([O-])CN1CCN(C(CCC(=O)NCCCC[C@H](NC(=O)N[C@@H](CCC(=O)O)C(=O)O)C(=O)O)C(=O)[O-])CCN(CC(=O)[O-])CCN(C(CCC(=O)N[C@@H](CCCCNC(=O)CCCc2ccc(I)cc2)C(=O)O)C(=O)[O-])CC1.[111In+3] (stereo partly drawn) [[^111In]In-PSMA-DA1] | significantly higher | significant radioactivity accumulation | High radioactivity accumulation |  | 
O=C(O)CC[C@H](NC(=O)N[C@@H](CCCCNC(=O)[C@H](Cc1ccc2ccccc2c1)NC(=O)[C@H]1CC[C@H](CNC(=O)CCC(C(=O)O)N2CCN(CC(=O)O)CCN(C(CCC(=O)N[C@@H](CCCCNC(=O)CCCc3ccc(I)cc3)C(=O)O)C(=O)O)CCN(CC(=O)O)CC2)CC1)C(=O)O)C(=O)O (stereo partly drawn) [[^111In]In-PSMA-NAT-DA1, metal not drawn] | significantly high | significant radioactivity accumulation | also observed | hardly observed | 
O=C([O-])CN(Cc1cccc(C(=O)[O-])n1)C[C@H](Cc1ccc(NC(=O)[C@H](CCCCNC(=O)CCC(=O)NCCCC[C@H](NC(=O)N[C@@H](CCC(=O)O)C(=O)O)C(=O)O)NC(=O)CCCc2ccc(I)cc2)cc1)N(CC(=O)[O-])Cc1cccc(C(=O)[O-])n1.[111In+3] [[^111In]In-Octapa-2] |  | high radioactivity accumulation | also observed |  | 
O=C([O-])CN1CCN(C(CCC(=O)NCCC(=O)N2Cc3ccccc3-c3c(nnn3CCOCCOCCOCCOCCC(=O)NCCCC[C@H](NC(=O)N[C@@H](CCC(=O)O)C(=O)O)C(=O)O)-c3ccccc32)C(=O)[O-])CCN(CC(=O)[O-])CCN(C(CCC(=O)N[C@@H](CCCCNC(=O)CCCc2ccc(I)cc2)C(=O)O)C(=O)[O-])CC1.[111In+3] (stereo partly drawn) [[^111In]In-PtDA] |  | high radioactivity accumulation |  |  | 79.0%
O=C([O-])CN1CCN(C(CCC(=O)NCCCC[C@H](NC(=O)N[C@@H](CCC(=O)O)C(=O)O)C(=O)O)C(=O)[O-])CCN(CC(=O)[O-])CCN(C(CCC(=O)Nc2ccccc2)C(=O)[O-])CC1.[111In+3] (stereo partly drawn) [[^111In]In-PSMA-DB, reference compound] |  | lower than at the kidney |  |  | 
